Where two headings read alike, the source gives them in different places.
Tests used:
[1] = tested on: Clostridium difficile; type: cell-based; details: Table 16
Text: The A41030 antibiotic factors A, B, C, D, E, F, and G, are also active against a number of strains of Clostridium difficile, as determined by the agar-dilution method.

[2] = tested on: B. thetaiotaomicron; type: cell-based; details: Table 14; Bacteroides thetalotaomicron 1438
Text: (§1) The agar-dilution procedure described by the International Collaborative study (ICS) group was used to determine the minimum inhibitory concentrations (MIC's).

[3] = tested on: Bacteroides melaninogenicus; assay: Agar-dilution MIC (anaerobes); type: cell-based; details: Table 14; Bacteroides melaninogenicus 2736
[4] = tested on: Clostridium septicum; assay: Agar-dilution MIC (anaerobes); type: cell-based; details: Table 14; Clostridium septicum 1128
[5] = tested on: Clostridium perfringens; type: cell-based; details: Table 14; Clostridium perfringens 81
[6] = Solubility in solvents; type: physicochemical; details: solvents as named
Text: The seven antibiotic factors are recovered from the fermentation and are obtained as a mixture, the A41030 complex. It will be recognized that the ratio of the factors in the A41030 complex will vary, depending upon the fermentation conditions used. The individual factors […], and G are separated and isolated as individual compounds, as hereinafter described.

[7] = tested on: Fusobacterium symbiosum; assay: Agar-dilution MIC (anaerobes); type: cell-based; details: Table 14; Fusobacterium symbiosum 1470
[8] = tested on: Salmonella typhi; assay: Agar-dilution MIC; type: cell-based; details: Table 17, 24 hours
[9] = tested on: Staphylococcus aureus; assay: Agar-dilution MIC; type: cell-based; details: Table 17, 24 hours
[10] = tested on: Bacteroides fragilis; assay: Agar-dilution MIC (anaerobes); type: cell-based; details: Table 14
Text: as §1

[11] = tested on: Bacteroides corrodens; assay: Agar-dilution MIC (anaerobes); type: cell-based; details: Table 14; Bacteroides corrodens 1874
[12] = tested on: Peptococcus asaccharolyticus; assay: Agar-dilution MIC (anaerobes); type: cell-based; details: Table 14; Peptococcus asaccharolyticus 1302
[13] = tested on: Bacteroides vulgatis; assay: Agar-dilution MIC (anaerobes); type: cell-based; details: Table 14; Bacteroides vulgatis 1211
[14] = tested on: Clostridium difficile; type: cell-based; details: Table 14; Clostridium difficile 2994
[15] = tested on: Peptostreptococcus anaerobius; assay: Agar-dilution MIC (anaerobes); type: cell-based; details: Table 14; Peptostreptococcus anaerobius 1428
[16] = tested on: S. pyogenes; assay: Experimental bacterial infection in mice, subcutaneous ED50; type: in vivo; details: two doses subcutaneously
Procedure: (§2) All of the A41030 factors tested have shown in vivo antimicrobial activity against experimental bacterial infections. When two doses of test compound were administered subcutaneously to mice in illustrative infections, the activity observed is measured as an ED50 value [effective dose in mg./kg. to protect fifty percent of the test animals: See Warren Wick, et al., J. Bacteriol. 81, 233-235 (1961)].

[17] = tested on: Staph. aureus; assay: as above; type: in vivo; details: two doses subcutaneously
Procedure: as §2

[18] = tested on: S. pneumoniae; assay: as above; type: in vivo; details: two doses subcutaneously
Procedure: as §2

[19] = tested on: Eubacterium aerofaciens; assay: Agar-dilution MIC (anaerobes); type: cell-based; details: Table 14; Eubacterium aerofaciens 1235
[20] = tested on: Peptococcus prevoti; assay: Agar-dilution MIC (anaerobes); type: cell-based; details: Table 14; Peptococcus prevoti 1281
[21] = tested on: Peptostreptococcus intermedius; assay: Agar-dilution MIC (anaerobes); type: cell-based; details: Table 14; Peptostreptococcus intermedius 1264
[22] = tested on: Fusobacterium necrophorum; assay: Agar-dilution MIC (anaerobes); type: cell-based; details: Table 14; Fusobacterium necrophorum 6054A
[23] = tested on: Propionibacterium acnes; assay: Agar-dilution MIC (anaerobes); type: cell-based; details: Table 14; Propionibacterium acnes 79
Text: Antibiotic A41030 factors A, B and C have also been tested and found to be active against a genus of anaerobic bacteria identified as Propionibacterium acnes.

[24] = tested on: Hemophilus influenzae; assay: Agar-dilution MIC; type: cell-based; details: Table 17, 24 hours
[25] = Electrometric titration (pKa); type: physicochemical; details: electrometric titration in 66% dimethylformamide in water
[26] = tested on: Streptococcus pyogenes; assay: Agar-dilution MIC; type: cell-based; details: Table 17; 24 hours; Streptococcus pyogenes C203
Text: as §1

[27] = tested on: Streptococcus pneumoniae; assay: Agar-dilution MIC; type: cell-based; details: Table 17; 24 hours; Streptococcus pneumoniae Park I
Text: as §1

[28] = tested on: Staphylococcus epidermidis; assay: Agar-dilution MIC; type: cell-based; details: Table 17, 24 hours
Text: as §1

[29] = tested on: Streptococcus sp. (Group D); assay: Agar-dilution MIC; type: cell-based; details: Table 17, 24 hours
Text: as §1

[30] = tested on: Klebsiella pneumoniae; assay: Agar-dilution MIC; type: cell-based; details: Table 17; 24 hours; Klebsiella pneumoniae X26
[31] = Staphylococcus epidermidis EPI1

Substance A41030 factor E has an MIC ([1]; C. difficile 78) of 0.5 µg/mL, an MIC ([1]; C. difficile 107B) of 0.5 µg/mL and an MIC ([1]; C. difficile 111F) of 0.5 µg/mL. The MIC ([1]; C. difficile 1153) was 1.0 µg/mL, the MIC ([1]; C. difficile 2634) was 1.0 µg/mL and the MIC ([1]; C. difficile 3424-5B) was 0.5 µg/mL. For the same substance, the MIC ([1]; C. difficile 3816) was 0.5 µg/mL, the MIC ([1]; C. difficile 3950) was 0.5 µg/mL and the MIC ([1]; C. difficile 6890) was 0.5 µg/mL. For the same substance, the MIC ([1]; C. difficile 8484) was 0.5 µg/mL, the MIC ([1]; C. difficile A-194) was 0.5 µg/mL and the MIC ([1]; C. difficile A-195) was 0.5 µg/mL. For the same substance, the MIC ([1]; C. difficile A-196) was 1.0 µg/mL, the MIC ([1]; C. difficile A-279) was 0.5 µg/mL and the MIC ([1]; C. difficile A-280) was 0.5 µg/mL. For the same substance, the MIC ([1]; C. difficile A-281) was 1.0 µg/mL, the MIC ([1]; C. difficile WAL-2112) was 0.5 µg/mL and the MIC ([1]; C. difficile WAL-3657) was 0.5 µg/mL. It also gave an MIC ([1]; C. difficile WAL-4268) of 0.5 µg/mL, an MIC [2] of 64 µg/mL and an MIC [3] of 32 µg/mL. The MIC [4] was 0.5 µg/mL, the MIC [5] was 1.0 µg/mL and the Solubility [6] was “soluble in the same solvents as factor A”. The MIC [7] was 1.0 µg/mL, the MIC ([8]; Salmonella typhi 1335) was > 128 µg/mL and the MIC ([8]; Salmonella typhi X514) was > 128 µg/mL. The MIC ([9]; Staphylococcus aureus 3055) was 0.125 µg/mL, the MIC ([9]; Staphylococcus aureus S13E) was 0.25 µg/mL and the MIC ([9]; Staphylococcus aureus V41) was 0.25 µg/mL. For the same substance, the MIC ([9]; Staphylococcus aureus X400) was 0.25 µg/mL, the MIC ([10]; Bacteroides fragilis 111) was 64 µg/mL and the MIC ([10]; Bacteroides fragilis 1877) was 32 µg/mL. The MIC ([10]; Bacteroides fragilis 1936B) was 64 µg/mL, the MIC [11] was 64 µg/mL and the MIC [12] was ≤ 0.25 µg/mL. For the same substance, the MIC [13] was 32 µg/mL, the MIC [14] was 0.5 µg/mL and the MIC [15] was 32 µg/mL. For the same substance, the ED50 [16] was 3.54 mg/kg, the ED50 [17] was < 0.31 mg/kg and the ED50 [18] was 3.11 mg/kg. The MIC [19] was 0.5 µg/mL, the MIC [20] was 32 µg/mL and the MIC [21] was 32 µg/mL. For the same substance, the MIC [22] was 0.5 µg/mL, the MIC [23] was 0.5 µg/mL and the MIC ([24]; Haemophilus influenzae 76) was 8 µg/mL. The MIC ([24]; Haemophilus influenzae C.L.) was 8 µg/mL, the “pKa, first titratable group” value [25] was “about 5.8” and the “pKa, second titratable group” value [25] was ~7.7. For the same substance, the MIC [26] was 0.25 µg/mL, the MIC [27] was 0.25 µg/mL and the MIC [28, 31] was 0.25 µg/mL. It also gave an MIC ([29]; Streptococcus sp. Group D 9960) of 1 µg/mL and an MIC ([29]; Streptococcus sp. Group D X66) of 1 µg/mL.

A41030 factor G gave an MIC ([1]; C. difficile 78) of 1.0 µg/mL, an MIC ([1]; C. difficile 107B) of 1.0 µg/mL and an MIC ([1]; C. difficile 111F) of 1.0 µg/mL. The MIC ([1]; C. difficile 1153) was 1.0 µg/mL, the MIC ([1]; C. difficile 2634) was 1.0 µg/mL and the MIC ([1]; C. difficile 3424-5B) was 1.0 µg/mL. It also gave an MIC ([1]; C. difficile 3816) of 1.0 µg/mL, an MIC ([1]; C. difficile 3950) of 1.0 µg/mL and an MIC ([1]; C. difficile 6890) of 1.0 µg/mL. The MIC ([1]; C. difficile 8484) was 1.0 µg/mL, the MIC ([1]; C. difficile A-194) was 1.0 µg/mL and the MIC ([1]; C. difficile A-195) was 1.0 µg/mL. The MIC ([1]; C. difficile A-196) was 1.0 µg/mL, the MIC ([1]; C. difficile A-279) was 1.0 µg/mL and the MIC ([1]; C. difficile A-280) was 1.0 µg/mL. For the same substance, the MIC ([1]; C. difficile A-281) was 1.0 µg/mL, the MIC ([1]; C. difficile WAL-2112) was 1.0 µg/mL and the MIC ([1]; C. difficile WAL-3657) was 1.0 µg/mL. It also gave an MIC ([1]; C. difficile WAL-4268) of 1.0 µg/mL, an MIC [2] of 64 µg/mL and an MIC [30] of 64 µg/mL. It also gave an MIC [3] of 64 µg/mL, an MIC [4] of 2 µg/mL and an MIC [5] of 2 µg/mL. For the same substance, the Solubility [6] was “soluble in the same solvents as is factor A”, the MIC [7] was 2 µg/mL and the MIC ([8]; Salmonella typhi 1335) was > 128 µg/mL. The MIC ([8]; Salmonella typhi X514) was > 128 µg/mL, the MIC ([10]; Bacteroides fragilis 111) was 32 µg/mL and the MIC ([10]; Bacteroides fragilis 1877) was 32 µg/mL. For the same substance, the MIC ([10]; Bacteroides fragilis 1936B) was 64 µg/mL, the MIC [11] was 32 µg/mL and the MIC [12] was 1.0 µg/mL. The MIC [13] was 64 µg/mL, the MIC [14] was 2 µg/mL and the MIC [15] was ≤ 0.5 µg/mL. It also gave an MIC [19] of 2 µg/mL, an MIC [20] of 2 µg/mL and an MIC [21] of 2 µg/mL. For the same substance, the MIC [22] was 2 µg/mL, the MIC [23] was 1.0 µg/mL and the MIC ([24]; Haemophilus influenzae 76) was 32 µg/mL. The MIC ([24]; Haemophilus influenzae C.L.) was 32 µg/mL, the “pKa, first titratable group” value [25] was “about 5.4” and the “pKa, second titratable group” value [25] was ~7.0. The MIC [26] was 2 µg/mL, the MIC [27] was 2 µg/mL and the MIC [28, 31] was 0.5 µg/mL. The MIC ([28]; Staphylococcus epidermidis EPI2) was 0.5 µg/mL, the MIC ([29]; Streptococcus sp. Group D 9960) was 4 µg/mL and the MIC ([29]; Streptococcus sp. Group D X66) was 4 µg/mL.
